# Reference: patent US12433870B2, “Supramolecular photoprotection of a photosensitizer” (Northwestern University, priority 2019, dated 2025)
# Tested on: A2780 cells
# Experiment: In vitro PDT efficacy, MTT assay after visible light irradiation
# Assay type: cell-based, human
# Procedure: A2780 cells (human ovarian cancer cell line) and MCF-7 cells (human breast adenocarcinoma cell line) obtained from Sigma-Aldrich and American Type Culture Collection (ATCC, Rockville, MD, USA), respectively were utilized for cell culture experiments. These cells were cultured in Dulbecco's Modified Eagle's Medium (DMEM) supplemented with 10% fetal bovine serum (FBS), penicillin (100 IU/mL) and streptomycin (100 μg/mL) at 37° C. in the presence of air (95%) and CO2 (5%).
# A2780 or MCF-7 cells (2×10^5 cells/mL, 100 μL) were seeded in each well of a black 96-well plate. Stock solution of ExBox^4+⊃DPP in PBS (1 mM, 10 μL) was added to each well to achieve working concentrations and incubated for 12 h. After incubation, wells were washed with PBS, added with 100 μL of DMEM and immediately irradiated with visible light using Max-303 Xenon Light Source (385-740 nm, Asahi Spectra) at different light intensities (5-50 mW) for 1 to 15 min. Following irradiation, cells were incubated overnight and then added with MTT (5 mg/mL in PBS, 10 μL). After 4 h incubation with MTT, media from each well was pipetted out, formazan crystals deposited on the plate were dissolved in 200 μL of Me2SO, and the absorbance of each well was measured using a microplate reader at 560 nm. All the samples were analyzed in quadruplicates.
# The percentage cell viability was calculated using the following formula: % cell viability=(OD of treated sample/OD of untreated sample)*100.
compound,measurement,setting,value
C1=Cc2nc1cc1ccc([nH]1)c(-c1ccccc1)c1nc(cc3ccc([nH]3)c2-c2ccccc2)C=C1.c1cc2ccc1C[n+]1ccc(cc1)-c1ccc(cc1)-c1cc[n+](cc1)Cc1ccc(cc1)C[n+]1ccc(cc1)-c1ccc(cc1)-c1cc[n+](cc1)C2 [ExBox^4+⊃DPP],killing of A2780 cells,"10 μM, 10 min visible light irradiation, 0.078 and 0.156 J cm^−2",> 95%
same,irradiation time to kill >90% A2780 cells,"0.078 J cm^−2 light dose, 5 μM",10 min
same,killing of A2780 cells at other concentrations,"0.1, 0.05 and 0.01 μM, 10 min irradiation, 0.078 and 0.156 J cm^−2",less efficient
same,irradiation time to kill >90% of cells,"0.156 J cm^−2 light dose, 10 μM",2 min
same,effect on cell viability (MTT),"1.25 and 0.625 μM, light doses 0.078 and 0.156 J cm^−2",almost no effect on cell viability
same,A2780 cell-death (MTT),"2.5, 5 and 10 μM, light doses 0.078 and 0.156 J cm^−2",> 90%
same,efficacy at light dose 0.032 J cm^−2 (MTT),light dose 0.032 J cm^−2,efficacious only at 5 and 10 μM concentrations
same,effect on cell viability (MTT),"light dose, same concentrations",no effect on cell viability
